Publication PMC3741113, “De-Novo Design of Antimicrobial Peptides for Plant Protection” (PLoS ONE, 2013)
Ends that are not written are not given here.

Legend:
Alternaria alternata = settings: 2% malt extract medium, 1.5–2×10^3 spores/ml, room temperature, 3d, OD590 nm; lowest concentration with no visible growth; at least two independent replicates
Pseudomonas corrugata = settings: LB-medium, about 10^5 CFU/ml, 27°C, 1–2d, OD590 nm; at least two independent replicates
Cladosporium herbarum = settings: 2% malt extract medium, 1.5–2×10^3 spores/ml, room temperature, 3d, visual screening; lowest concentration with no visible growth; at least two independent replicates
[1] = tested on: Pseudomonas syringae pv. tomato; settings: LB-medium, about 10^5 CFU/ml, 27°C, 1–2d, OD590 nm; at least two independent replicates
tested plant pathogens = assay: Microdilution assay, activity summarised over several tested plant pathogens; assay type: cell-based; settings: statement over some / the majority of the tested plant pathogens or bacteria
Description: In-vitro inhibition assays were performed in sterile flat-bottom 96-well polypropylene-plates (Greiner bio-one, Frickenhausen, Germany). 10 µl (antibacterial assay) or 20 µl (antifungal assay) of each concentration were loaded per well. Fresh bacterial colonies were transferred into LB-medium, grown to an OD600 nm of 0.08–0.1 and diluted 1∶100 with medium. 90 µl of this suspension containing about 10^5 CFU/ml of bacteria were added to each well resulting in final peptide concentrations from 0 to 100 µg/ml. After incubation at 27°C for 1–2d bacterial growth was analyzed by measuring the OD590 nm using a Tecan Genios microplate reader (Crailsheim, Germany).
Spores of plant pathogenic fungi were collected by washing sporulating cultures with water. Spore concentration was determined by haematocytometer and adjusted to 1.5–2×10^3 spores/ml in 2% malt extract medium. 80 µl of fungal spores were added per well resulting in final peptide concentrations from 0 to 100 µg/ml. After incubation at room temperature for 3d on a rotary shaker (300 rpm), fungal growth was determined by measuring the OD590 nm (Alternaria sp.) or by visual screening of the plates (Botrytis sp., Cladosporium sp.). The lowest peptide concentration, where no visible microbial growth could be detected, was determined for each organism-peptide combination and referred to as the minimal inhibitory concentration (MIC). At least two independent replicates were performed.

[2] = tested on: Pseudomonas syringae pv. syringae; settings: LB-medium, about 10^5 CFU/ml, 27°C, 1–2d, OD590 nm; at least two independent replicates
Botrytis cinerea = settings: 2% malt extract medium, 1.5–2×10^3 spores/ml, room temperature, 3d, visual screening; lowest concentration with no visible growth; at least two independent replicates
human erythrocytes = settings: Table S5; ref Zasloff, 1987; cited from earlier work
Fusarium solani = settings: 2% malt extract medium, room temperature, 3d; concentration range 1 to 64 µg/ml
Xanthomonas vesicatoria = settings: LB-medium, about 10^5 CFU/ml, 27°C, 1–2d, OD590 nm; at least two independent replicates
[3] = tested on: Clavibacter michiganensis ssp. michiganensis; settings: LB-medium, about 10^5 CFU/ml, 27°C, 1–2d, OD590 nm; at least two independent replicates
[4] = tested on: Pectobacterium carotovorum ssp. carotovorum; settings: LB-medium, about 10^5 CFU/ml, 27°C, 1–2d, OD590 nm; at least two independent replicates
[5] = tested on: Arabidopsis mesophyll protoplasts; assay: Phytotoxicity on plant protoplasts; assay type: cell-based; settings: concentrations up to 100 µg/ml
Description: Phytotoxicity was measured on Arabidopsis mesophyll protoplasts prepared from leaves as described in [80]. 80 µl protoplast suspension containing about 5000 protoplasts were incubated with 20 µl peptide solution. Final peptide concentrations were 0, 10, 100 and 200 µg/ml. The phytotoxic effect of antimicrobial peptides was observed after 1 h with a light microscope. Hints to cell death are loss of spherical shape, chloroplast release and/or agglomeration of protoplasts.

A. alternata = assay: Peptide spraying on inoculated tomato leaves, fungal growth; assay type: in vivo, A. alternata on tomato (Microtom); settings: 50 µg/ml peptide sprayed 22 h after inoculation (10^4 spores/ml); fungal DNA by RT-PCR
Description: (§1) To determine antifungal activity of AMPs four week old tomato plants (Microtom) were inoculated with fungal spores using an aerosol can. Spores were harvested by washing sporulating plate-grown fungi (A. alternata and C. herbarum) with 62.5 mM KH2PO4 (pH 6.0) supplemented with 5.5 mM glucose and 0.1% Tween-20. One leaf per plant (three plants per treatment) was sprayed adaxial and abaxial with 500 µl spore suspension (10^4 spores/ml). In this way approximately 100 µl spore suspension was applied directly onto the plant surface. Plants were covered with a plastic cap to guarantee high humidity and incubated at 20°C. After two hours the T0 tissue sample was collected. AMPs were sprayed onto the leaf surface 22 h after inoculation. Leaves were harvested 24 h and 48 h after peptide treatment. Frozen material was homogenized in liquid nitrogen and fungal DNA was isolated. Quantification of fungal DNA content was done by qRT-PCR amplifying the nuclear encoded ribosomal internal transcribed spacer (ITS) regions. ITS1-forward and ITS4-reverse primers were used at an annealing temperature of 60°C: For A. alternata: ITS1-Alt-for, 5′-[…]-3′ and ITS4_Alt-rev, 5′-[…]-3′ and for C. herbarum: ITS1-Cla-for 5′-[…]-3′ and ITS4-Cla-rev, 5′-[…]-3′ (synthesized by metabion, Munich, Germany). […] Differences between the mean values were analysed using an unpaired t-test analysis of variance.

C. herbarum = assay: as above; assay type: in vivo, C. herbarum on tomato (Microtom); settings: 5 µg/ml peptide sprayed 22 h after inoculation (10^4 spores/ml); fungal DNA by RT-PCR
Description: as §1

| Substance | MIC (Alternaria alternata) | MIC (Pseudomonas corrugata) | MIC (Cladosporium herbarum) | MIC [1] | active concentrations (MIC) (tested plant pathogens) | MIC [2] | MIC (Botrytis cinerea) | Hemolytic activity (human erythrocytes) | MIC (Fusarium solani) | MIC (Xanthomonas vesicatoria) | MIC [3] | MIC [4] | phytotoxicity (in words) [5] | growth inhibition on tomato leaves (A. alternata) | growth inhibition on tomato leaves (C. herbarum) |
| --- | --- | --- | --- | --- | --- | --- | --- | --- | --- | --- | --- | --- | --- | --- | --- |
| GIGKFLHSAKKFGKAFVGEIMNS [Magainin II, reference compound] | > 64 µg/mL | 32 µg/mL | 64 µg/mL | 32 µg/mL | 1 to 8 µg/mL | > 64 µg/mL | 64 µg/mL | 5 µg/mL | 2 µg/mL | 8 µg/mL | 32 µg/mL | > 64 µg/mL | – | – | – |
| LRFLKKILKHLF-NH2 [SP10-D] | 5 µg/mL | – | 5 µg/mL | – | – | – | 10 µg/mL | – | – | 2 µg/mL | 5 µg/mL | > 40 µg/mL | no phytotoxicity | around 70% | – |
| KRRLIARILRLAARALVKKR-NH2 [SP13-D] | 20 µg/mL | 40 µg/mL | 5 µg/mL | 1 µg/mL | – | – | > 40 µg/mL | – | – | 2 µg/mL | 10 µg/mL | > 40 µg/mL | no phytotoxicity | – | More than 80% |
